Laboratory results published in patent US20260250318A1, “COMPOSITIONS AND METHODS FOR CROSSING THE BLOOD BRAIN BARRIER” (VOYAGER THERAPEUTICS, INC., priority 2022, published 2026).

Tests used:
[1] = tested on: brains, heart, liver, muscle, and DRG of the NHPs; assay: Maturation of TTM-001 and TTM-002 capsids, NGS enrichment in NHP tissues; format: in vivo; settings: relative to AAV9 control
Procedure, shortened: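 Variants carry mutations within and flanking the loop IV peptide insert: positions 450–466 were triplet-randomized, while positions 449–466 received low-frequency point mutations. The combined pool went into two NHPs, and each peptide was scored by NGS enrichment ratio against AAV9.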

brain = assay: Matured TTM-001 and TTM-002 variants, NGS enrichment in mouse brain; format: in vivo, mice; settings: relative to AAV9 control
[2] = NGS fold-enrichment of RNA, NHP brain
[3] = NGS fold-enrichment, DRG of NHPs
[4] = NGS fold-enrichment, NHP liver DNA
[5] = NGS fold-enrichment, NHP liver RNA
[6] = NGS fold-enrichment, NHP muscle
[7] = NGS fold-enrichment, RNA, brain of NHPs
[8] = NGS fold-enrichment, heart of NHPs
[9] = NGS fold-enrichment, liver DNA of NHPs
[10] = NGS fold-enrichment, liver RNA of NHPs
[11] = NGS fold-enrichment, muscle of NHPs
[12] = NGS fold-enrichment, brain of mice
[13] = NGS fold-enrichment, mouse brain
[14] = NGS fold-enrichment of matured AAV capsid variants, NHP brain, RNA

Sequence	Fold Enrichment relative to AAV9, DRG (NHP) [1, 3]	Fold Enrichment relative to AAV9, Brain (NHP) [1, 7]	Fold Enrichment relative to AAV9, Heart (NHP) [1, 8]	Fold Enrichment relative to AAV9, Liver DNA (NHP) [1, 9]	Fold Enrichment relative to AAV9, Liver RNA (NHP) [1, 10]	Fold Enrichment relative to AAV9, Muscle (NHP) [1, 11]	Fold Enrichment relative to AAV9, Brain (Mouse) (brain; [12])	Fold Enrichment relative to AAV9, Brain (NHP) [1, 14]	Fold Enrichment relative to AAV9, DRG (NHP) ([1]; NHP DRG)	Fold Enrichment relative to AAV9, Heart (NHP) ([1]; NHP heart)	Fold Enrichment relative to AAV9, Liver DNA (NHP) ([1]; NHP liver, DNA)	Fold Enrichment relative to AAV9, Liver RNA (NHP) ([1]; NHP liver, RNA)	Fold Enrichment relative to AAV9, Muscle (NHP) ([1]; NHP muscle)	Fold Enrichment relative to AAV9, Brain (Mouse) (brain; mouse brain)	also measured
KELHGSGSPHSKAQNQQT	0.000 fold	102.680 fold	0.000 fold	0.592 fold	1.634 fold	0.000 fold	96.554 fold								Fold Enrichment relative to AAV9, Brain (NHP) [1, 2]: 102.680 fold; Fold Enrichment relative to AAV9, DRG (NHP) ([1]; NGS fold-enrichment, NHP DRG): 0.000 fold; Fold Enrichment relative to AAV9, Heart (NHP) ([1]; NGS fold-enrichment, NHP heart): 0.000 fold; Fold Enrichment relative to AAV9, Liver DNA (NHP) [1, 4]: 0.592 fold; Fold Enrichment relative to AAV9, Liver RNA (NHP) [1, 5]: 1.634 fold; Fold Enrichment relative to AAV9, Muscle (NHP) [1, 6]: 0.000 fold; Fold Enrichment relative to AAV9, Brain (Mouse) (brain; [13]): 96.554 fold
KESDGSGSPHSKAQNQQT	0.000 fold	63.766 fold	0.000 fold	0.146 fold	0.567 fold	0.000 fold	115.231 fold								
KEVHGSGSPHSKAQNQQT	0.000 fold	67.901 fold	0.000 fold	0.000 fold	0.727 fold	0.000 fold	100.111 fold								
KEVQGSGSPHSKAQNQQT								58.125 fold	0.000 fold	0.000 fold	0.000 fold	0.657 fold	0.000 fold	168.220 fold	
KEVVGSGSPHSKAQNQQT								56.371 fold	0.000 fold	0.000 fold	0.323 fold	0.000 fold	0.000 fold	116.964 fold	
KGGEGSGSPHSKAQNQQT								58.472 fold	0.000 fold	0.034 fold	0.066 fold	0.037 fold	0.000 fold	91.023 fold	
KGVLGSGSPHSKAQNQQT								54.472 fold	0.000 fold	0.007 fold	0.189 fold	0.359 fold	0.027 fold	145.740 fold	
KIINGRDSPHKSGQDQQT															Fold Enrichment relative to AAV9, Brain (NHP) [1, 2]: 78.773 fold; Fold Enrichment relative to AAV9, DRG (NHP) ([1]; NGS fold-enrichment, NHP DRG): 0.000 fold; Fold Enrichment relative to AAV9, Heart (NHP) ([1]; NGS fold-enrichment, NHP heart): 0.254 fold; Fold Enrichment relative to AAV9, Liver DNA (NHP) [1, 4]: 0.156 fold; Fold Enrichment relative to AAV9, Liver RNA (NHP) [1, 5]: 0.000 fold; Fold Enrichment relative to AAV9, Muscle (NHP) [1, 6]: 0.000 fold; Fold Enrichment relative to AAV9, Brain (Mouse) (brain; [13]): 16.132 fold
KNADGSGSPHSKAQNQQT	0.000 fold	60.944 fold	0.000 fold	0.085 fold	1.239 fold	0.000 fold	104.503 fold								
KNAIGSGSPHSKAQNQQT								52.516 fold	0.000 fold	0.000 fold	0.198 fold	0.165 fold	0.000 fold	117.939 fold	
KNALGSGSPHSKAQNQQT	0.000 fold	60.014 fold	0.003 fold	0.213 fold	0.682 fold	0.000 fold	137.222 fold								
KNCLGSGSPHSKAQNQQT	0.000 fold	61.442 fold	0.036 fold	0.026 fold	1.849 fold	0.000 fold	82.488 fold								
KNCVGSGSPHSKAQNQQT	0.000 fold	60.535 fold	0.000 fold	0.282 fold	0.018 fold	0.000 fold	96.175 fold								
KNCWGSGSPHSKAQNQQT								57.756 fold	0.000 fold	0.000 fold	0.092 fold	0.000 fold	0.000 fold	59.888 fold	
KNHIGSGSPHSKAQNQQT	0.000 fold	64.535 fold	0.000 fold	0.187 fold	1.253 fold	0.000 fold	70.356 fold								
KNINGGGSPHSKAQNQQT	0.000 fold	83.083 fold	0.042 fold	0.000 fold	0.000 fold	0.000 fold	75.913 fold								Fold Enrichment relative to AAV9, Brain (NHP) [1, 2]: 83.083 fold; Fold Enrichment relative to AAV9, DRG (NHP) ([1]; NGS fold-enrichment, NHP DRG): 0.000 fold; Fold Enrichment relative to AAV9, Heart (NHP) ([1]; NGS fold-enrichment, NHP heart): 0.042 fold; Fold Enrichment relative to AAV9, Liver DNA (NHP) [1, 4]: 0.000 fold; Fold Enrichment relative to AAV9, Liver RNA (NHP) [1, 5]: 0.000 fold; Fold Enrichment relative to AAV9, Muscle (NHP) [1, 6]: 0.000 fold; Fold Enrichment relative to AAV9, Brain (Mouse) (brain; [13]): 75.913 fold
KNINGSGSPHSKAQNHQT								54.248 fold	0.000 fold	0.034 fold	0.075 fold	0.340 fold	0.000 fold	74.979 fold	
KNINGSGSPHSKAQNQQT (KNTNGSGSPHSKAQNQQT)	0.000 fold	78.445 fold	0.000 fold	0.177 fold	0.571 fold	0.000 fold	89.719 fold								
KNINGSGSPHSKAQSQQT	0.000 fold	73.757 fold	0.000 fold	0.041 fold	0.000 fold	0.000 fold	57.432 fold								
KNNLGSGSPHSKAQNQQT								50.670 fold	0.000 fold	0.019 fold	0.121 fold	0.406 fold	0.000 fold	102.408 fold	
KNSIGSGSPHSKAQNQQT								57.101 fold	0.000 fold	0.052 fold	0.074 fold	0.083 fold	0.000 fold	97.381 fold	
